The test system of one series is mouse tail. The series can be described thus: Mouse tail-snip assay (bleeding time). Format: in vivo. As to conditions: amputated tail submerged in 1.5 ml of test formulation; compared with water. As to the method:
A formulation of the invention was tested for the ability to prevent bleeding using a mouse tail-snip assay. A portion of tail one centimeter in length was amputated from an anesthetized mouse, and the remaining portion of the tail was immediately submerged in 1.5 ml of test formulation. Bleeding time was recorded as time from amputation to complete cessation of bleeding. The following formulations were tested: water; a solution of 5% tranexamic acid (TXA) in water; a gelled formulation containing Poloxamer 407 (TDP); and a gelled formulation containing 5% tranexamic acid and TDP. Each formulation was tested on seven animals total over the course of three experiments.
FIG. 8 is a graph showing bleeding time of mouse tails exposed to various formulations in a mouse tail-snip assay. *P<0.05, **P<0.01, ***P<0.001, ****P<0.0001, based on one-way ANOVA with the Tukey post-test.

Series [1] can be described thus: Drug release from solidified Poloxamer 407 thermogel. Format: physicochemical. The following applies: within 3 hours. The text has this: The properties of thermogels based on Poloxamer 407 were investigated. Poloxamer 407 has a molecular weight of 12,000 Da and a PEO/PPO ratio of 2:1 by weight, and it is Generally Recognized As Safe (GRAS) by the FDA.

With `NC[C@H]1CC[C@H](C(=O)O)CC1` [TXA, tranexamic acid], in the series with mouse tail, the bleeding time entry is “decrease bleeding time”.

For the molecule `CCN(CC)CC(=O)Nc1c(C)cccc1C` [lidocaine], the drug being delivered in series [1] was about 60%.

The values are drawn from US20230181624A1, “COMPOSITIONS AND METHODS FOR TREATMENT OF GASTROINTESTINAL BLEEDING” (Intact Therapeutics, Inc., priority 2020, published 2023).
